Reference: patent US20110015119A1, “NOVEL SEMI-SYNTHETIC GLYCOPEPTIDES AS ANTIBACTERIAL AGENTS” (LEAD THERAPEUTICS, INC., priority 2009, published 2011)
≈ marks a conversion by molar mass, not a printed value. Where two headings read alike, the source gives them in different places.

How the values were obtained:
Format in all cases: cell-based
[1] = system: Staphylococcus epidermidis 835; assay: MIC by broth microdilution, SE 835
Experimental: (§1) Antibacterial activity in vitro is investigated by broth microdilution method in Meuller-Hinton broth as recommended by NCCLS. All strains tested are clinical isolates either sensitive or resistant to natural glycopeptides. MIC values were determined using the CLSI-recommended broth microdilution procedure (Clinical and Laboratory Standards Institute, Methods for Dilution Antimicrobial Susceptibility Tests for Bacteria That Grow Aerobically; Approved Standard-Seventh Edition.). Automated liquid handlers (Multidrop 384, Labsystems, Helsinki, Finland; Biomek 2000 and Multimek 96, Beckman Coulter, Fullerton Calif.) were used to conduct serial dilutions and liquid transfers. The MIC value for vancomycin is given for comparison. The abbreviations for organisms tested are as follow: SA 100—Staphylococcus aureus 100 (ATCC 29213); SA 757—Staphylococcus aureus 757 (MRSA); SA 2012—Staphylococcus aureus 2012 (VISA); SE 835—Staphylococcus epidermidis 835; SE 831—Staphylococcus epidermidis 831 (MRSE); EFc 101—Enterococcus faecalis 101 (ATCC 29212); EFc 848—Enterococcus faecalis 848 (VRE, Van A); EFcm 800—Enterococcus faecium 800; EFcm 752—Enterococcus faecium 752 (VRE, Van A); SPNE 1195—Streptococcus pneumoniae 1195 (ATCC 49619); SPY 712—Streptococcus pyogenes 712.

[2] = system: Enterococcus faecium 800; assay: MIC by broth microdilution, EFcm 800
Experimental: as §1

[3] = system: Staphylococcus aureus 100 (ATCC 29213); assay: MIC by broth microdilution, SA 100
Experimental: as §1

[4] = system: Streptococcus pneumoniae 1195 (ATCC 49619); assay: MIC by broth microdilution, SPNE 1195
Experimental: as §1

[5] = system: Staphylococcus aureus 757 (MRSA); assay: MIC by broth microdilution, SA 757; conditions: read-out: MIC SA 757
Experimental: as §1

[6] = system: Enterococcus faecium 752 (VRE, Van A); assay: MIC by broth microdilution, EFcm 752; conditions: class symbols
Experimental: as §1

[7] = system: Enterococcus faecalis 848 (VRE, Van A); assay: MIC by broth microdilution, EFc 848; conditions: class symbols
Experimental: as §1

[8] = system: Staphylococcus epidermidis 831 (MRSE); assay: MIC by broth microdilution, SE 831; conditions: read-out: MIC SE 831
Experimental: as §1

[9] = system: Enterococcus faecalis 101 (ATCC 29212); assay: MIC by broth microdilution, EFc 101; conditions: class symbols
Experimental: as §1

[10] = system: Streptococcus pyogenes 712; assay: MIC by broth microdilution, SPY 712
Experimental: as §1

[11] = system: Staphylococcus aureus 2012 (VISA); assay: MIC by broth microdilution, SA 2012; conditions: class symbols
Experimental: as §1

[12] = Staphylococcus epidermidis, 835, read-out: MIC SE 835
[13] = Enterococcus faecium, 800, read-out: MIC E FCM 800
[14] = Staphylococcus aureus, ATCC29213, read-out: MIC SA 100
[15] = Streptococcus pneumoniae, ATCC49619, read-out: MIC S PNE 1195
[16] = Enterococcus faecium, VRE, read-out: MIC E FCM 752, Enterococcus faecium 752 (VRE, Van A)
[17] = Enterococcus faecalis, VRE, read-out: MIC E FC 848, Enterococcus faecalis 848 (VRE, Van A)
[18] = Staphylococcus epidermidis, MRSE
[19] = Enterococcus faecalis, ATCC29212, read-out: MIC E FC 101, Enterococcus faecalis 101 (ATCC 29212)
[20] = Streptococcus pyogenes, 712, read-out: MIC S PYO 712
[21] = Staphylococcus aureus, VISA, read-out: MIC SA 2012, Staphylococcus aureus 2012 (VISA)

Compound | MIC [1, 12] | MIC [2, 13] | MIC [3, 14] | MIC [4, 15] | MIC ([5]; Staphylococcus aureus, MRSA) | MIC [6, 16] | MIC [7, 17] | MIC [8, 18] | MIC [9, 19] | MIC [10, 20] | MIC [11, 21] | other results
CCCCCCc1ccc(S(=O)(=O)NCCCCCCNC(=O)Oc2cc(O)c3c(c2)[C@@H](C(=O)O)NC(=O)[C@H]2NC(=O)[C@H](NC(=O)[C@@H]4NC(=O)[C@H](CC(N)=O)NC(=O)[C@H](NC(=O)[C@@H](CC(C)C)NC)[C@H](O)c5ccc(c(Cl)c5)Oc5cc4cc(c5O[C@@H]4O[C@H](CO)[C@@H](O)[C@H](O)[C@H]4O[C@H]4C[C@](C)(N)[C@H](O)[C@H](C)O4)Oc4ccc(cc4Cl)[C@H]2O)c2ccc(O)c-3c2)cc1 (atropisomer, axis not shown) [Compound 352] | 0.01 to 0.5 µg/mL (≈ 0.00551 to 0.275 µM) | 0.01 to 0.5 µg/mL (≈ 0.00551 to 0.275 µM) | 0.01 to 0.5 µg/mL (≈ 0.00551 to 0.275 µM) | 0.01 to 0.5 µg/mL (≈ 0.00551 to 0.275 µM) | 0.01 to 0.5 µg/mL (≈ 0.00551 to 0.275 µM) | 0.5 to 1 µg/mL (≈ 0.275 to 0.551 µM) | 2 to 4 µg/mL (≈ 1.1 to 2.2 µM) | 0.01 to 0.5 µg/mL (≈ 0.00551 to 0.275 µM) | 0.01 to 0.5 µg/mL (≈ 0.00551 to 0.275 µM) | 0.01 to 0.5 µg/mL (≈ 0.00551 to 0.275 µM) | 0.01 to 0.5 µg/mL (≈ 0.00551 to 0.275 µM) | –
CCOc1ccc(NC(=O)Oc2cc(O)c3c(c2)[C@@H](C(=O)NC2C4CC5CC(C4)CC2C5)NC(=O)[C@H]2NC(=O)[C@H](NC(=O)[C@@H]4NC(=O)[C@H](CC(N)=O)NC(=O)[C@H](NC(=O)[C@@H](CC(C)C)NC)[C@H](O)c5ccc(c(Cl)c5)Oc5cc4cc(c5O[C@@H]4O[C@H](CO)[C@@H](O)[C@H](O)[C@H]4O[C@H]4C[C@](C)(N)[C@H](O)[C@H](C)O4)Oc4ccc(cc4Cl)[C@H]2O)c2ccc(O)c-3c2)cc1 (some centres unmarked) [Compound 330] | 1 to 2 µg/mL (≈ 0.573 to 1.15 µM) | 0.01 to 0.5 µg/mL (≈ 0.00573 to 0.286 µM) | 0.5 to 1 µg/mL (≈ 0.286 to 0.573 µM) | 0.01 to 0.5 µg/mL (≈ 0.00573 to 0.286 µM) | 0.5 to 1 µg/mL (≈ 0.286 to 0.573 µM) | > 16 µg/mL | > 16 µg/mL | 1 to 2 µg/mL (≈ 0.573 to 1.15 µM) | 1 to 2 µg/mL (≈ 0.573 to 1.15 µM) | 0.01 to 0.5 µg/mL (≈ 0.00573 to 0.286 µM) | 4 to 8 µg/mL (≈ 2.29 to 4.58 µM) | –
CCCCCCCCc1ccc(S(=O)(=O)NCCCCCCNCc2c(O)cc3c(c2O)-c2cc(ccc2O)[C@H]2NC(=O)[C@@H]4NC(=O)[C@H](CC(N)=O)NC(=O)[C@H](NC(=O)[C@@H](CC(C)C)NC)[C@H](O)c5ccc(c(Cl)c5)Oc5cc4cc(c5O[C@@H]4O[C@H](CO)[C@@H](O)[C@H](O)[C@H]4O[C@H]4C[C@](C)(NC(=O)NC5CC5)[C@H](O)[C@H](C)O4)Oc4ccc(cc4Cl)[C@@H](O)[C@H](NC2=O)C(=O)N[C@@H]3C(=O)O)cc1 (atropisomer, axis not shown) [Compound 366] | – | – | – | – | – | – | – | – | – | – | – | MIC ([1]; Staphylococcus epidermidis 835, class symbols, read-out: MIC SE 835): 0.01 to 0.5 µg/mL (≈ 0.00523 to 0.261 µM); MIC ([2]; Enterococcus faecium 800, class symbols, read-out: MIC E FCM 800): 0.01 to 0.5 µg/mL (≈ 0.00523 to 0.261 µM); MIC ([3]; ATCC29213, Staphylococcus aureus 100 (ATCC 29213), class symbols, read-out: MIC SA 100): 0.01 to 0.5 µg/mL (≈ 0.00523 to 0.261 µM); MIC ([4]; ATCC49619, Streptococcus pneumoniae 1195 (ATCC 49619), class symbols, read-out: MIC S PNE 1195): 0.01 to 0.5 µg/mL (≈ 0.00523 to 0.261 µM); MIC ([5]; Staphylococcus aureus 757 (MRSA), class symbols): 0.01 to 0.5 µg/mL (≈ 0.00523 to 0.261 µM); MIC ([6]; Enterococcus faecium 752 (VRE, Van A), read-out: MIC E FCM 752): 2 to 4 µg/mL (≈ 1.05 to 2.09 µM); MIC ([7]; Enterococcus faecalis 848 (VRE, Van A), read-out: MIC E FC 848): 8 to 16 µg/mL (≈ 4.18 to 8.36 µM); MIC ([8]; Staphylococcus epidermidis 831 (MRSE), class symbols): 0.01 to 0.5 µg/mL (≈ 0.00523 to 0.261 µM); MIC ([9]; ATCC29212, Enterococcus faecalis 101 (ATCC 29212), read-out: MIC E FC 101): 0.01 to 0.5 µg/mL (≈ 0.00523 to 0.261 µM); MIC ([10]; Streptococcus pyogenes 712, class symbols, read-out: MIC S PYO 712): 0.01 to 0.5 µg/mL (≈ 0.00523 to 0.261 µM); MIC ([11]; Staphylococcus aureus 2012 (VISA), read-out: MIC SA 2012): 0.01 to 0.5 µg/mL (≈ 0.00523 to 0.261 µM)
CNCCOc1ccc(CCNC(=O)Oc2cc(O)c3c(c2)[C@@H](C(=O)NC2C4CC5CC(C4)CC2C5)NC(=O)[C@H]2NC(=O)[C@H](NC(=O)[C@@H]4NC(=O)[C@H](CC(N)=O)NC(=O)[C@H](NC(=O)[C@@H](CC(C)C)NC)[C@H](O)c5ccc(c(Cl)c5)Oc5cc4cc(c5O[C@@H]4O[C@H](CO)[C@@H](O)[C@H](O)[C@H]4O[C@H]4C[C@](C)(N)[C@H](O)[C@H](C)O4)Oc4ccc(cc4Cl)[C@H]2O)c2ccc(O)c-3c2)cc1 (some centres unmarked) [Compound 335] | 0.01 to 0.5 µg/mL (≈ 0.00555 to 0.277 µM) | 0.01 to 0.5 µg/mL (≈ 0.00555 to 0.277 µM) | 0.01 to 0.5 µg/mL (≈ 0.00555 to 0.277 µM) | 0.01 to 0.5 µg/mL (≈ 0.00555 to 0.277 µM) | 0.01 to 0.5 µg/mL (≈ 0.00555 to 0.277 µM) | 2 to 4 µg/mL (≈ 1.11 to 2.22 µM) | > 16 µg/mL | 0.01 to 0.5 µg/mL (≈ 0.00555 to 0.277 µM) | 0.01 to 0.5 µg/mL (≈ 0.00555 to 0.277 µM) | 0.01 to 0.5 µg/mL (≈ 0.00555 to 0.277 µM) | 1 to 2 µg/mL (≈ 0.555 to 1.11 µM) | –
